For 23 compounds, IC50 results are on record in PubChem BioAssay AID488892 (Sanford-Burnham Center for Chemical Genomics, 2010).

The source made the active and inactive calls.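 How the source made its calls: active means mean IC50 below a set limit; inactive means the rest.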

As a reminder, the IC50 is the point on the concentration scale where inhibition reaches its midpoint.

This assay deals with Alkaline phosphatase, placental type (Homo sapiens) (UniProt P05187). As to the kind of experiment: inhibition of placental alkaline phosphatase – biochemical, uHTS hits, luminescence, selectivity assay for human IAP inhibitor project, dose response (AID 488892). Particulars: purified PLAP, CDP-Star luminescence, 30 min.
`O=c1c2cc(O)c(O)cc2oc2cc(O)c(C3OC(CO)C(O)C(O)C3O)c(O)c12` (stereo not drawn): the IC50 was 2.71 µM.

As for `c1ccc(CSCCc2ccncc2)cc1`, the IC50 was 30.3 µM.

Take `CN(C)c1ccc(N=Nc2ccccc2Br)cc1`: the IC50 was 27.9 µM.

For `CC[n+]1c(/C=C/c2c[nH]c3ccccc23)ccc2cc(C)ccc21`, the IC50 is 10.8 µM.

For `COc1ccc2nc3cc(Cl)ccc3c(Nc3cc(CN4CCCC4)c(O)c(CN4CCCC4)c3)c2n1`, the IC50 is 11.5 µM.

On to `N#C/C(=C\c1ccc(O)c(O)c1)C(=O)c1ccc(O)c(O)c1`, for which the IC50 was 5.59 µM.

As for `O=C(NN1C(=O)/C(=C/c2ccc(O)c([N+](=O)[O-])c2)SC1=S)c1ccccc1Cl`, the 50% inhibitory concentration (IC50) is 27.9 µM.

As for `CNc1nnc(-c2cc3ccccc3oc2=O)s1`, the half-maximal inhibitory concentration (IC50) is 4.1 µM.

Consider `CC(C)=CCc1c(O)ccc2c1OC(c1ccc(O)c(O)c1)CC2=O` (stereo not drawn), for which the IC50 was 44.8 µM.

Regarding `O=C(/C=C/c1ccccc1O)c1ccco1`, the half-maximal inhibitory concentration (IC50) is 75.4 µM.

For `CCN1/C(=C\c2ccc3ccccc3[n+]2CC)Sc2cc(C)ccc21`, the IC50 was 28.2 µM.

On to `Nc1ccc(-c2c3ccc(=O)cc-3oc3cc(O)ccc23)cc1C(=O)O`, for which the IC50 was 29.9 µM.

Consider `C/C(=N/Nc1ccccc1[N+](=O)[O-])c1ccc([N+](=O)[O-])cc1`, for which the IC50 is > 100 µM (inactive).

On to `C=CCN1C(=O)/C(=C\C=C2\N(C)c3ccccc3C2(C)C)SC1=S`, for which the IC50 was 10.6 µM.

As to `CN(C)c1ccc2nc3c(=O)[nH]c(=O)nc-3n(CC(O)C(O)C(O)CO)c2c1` (stereo not drawn), the IC50 is 30.3 µM.

For the compound `O=C1Nc2ccccc2/C1=N\N=C\c1ccc(O)c(O)c1`, the IC50 was 8.64 µM.

`COc1cc(/C=C(\C#N)C(=O)c2ccc(O)c(O)c2)cc(I)c1O`: the IC50 is 15.5 µM.

For `CCN(CC)c1ccc(N=Nc2nn(C)c(C)c2[N+](=O)[O-])cc1`, the IC50 was 49 µM.

For `O=C1C2C3C=CC(C3)C2C(=O)N1c1n[nH]c(-c2cccnc2)n1` (stereo not drawn), the IC50 is > 100 µM (inactive).

Turning to `CCOc1cc(/C=C2/C(=O)ON=C2C)cc(Br)c1O`, the IC50 is 35.1 µM.

For the compound `COc1ccc(C=C2C(=O)c3ccccc3C2=O)cc1O`, the IC50 was 14.7 µM.

With `CC1=NN(Cc2ccccc2)C(=O)/C1=C\c1ccc(N(C)C)cc1`, the IC50 was 37.8 µM.

Consider `Oc1ccc(N=Nc2c(O)ccc3ccccc23)cc1`, for which the IC50 is 18.4 µM.
